Counter-ions that a name gives are not always drawn.

In one data set the test system is Eimeria tenella. The data set is described as follows: chick feeding experiment, Eimeria tenella challenge. Format: in vivo, chickens. Conditions: 100 ppm in diet; Na salt. The source says:
A feeding experiment in young chickens confirms that the deoxynarasin antibiotics have anticoccidial activity in vivo.
^1 Two cages of four chickens each per treatment.
^2 Maximum possible score = 4.00.

A further data set in a line: solubility. The format is physicochemical.
The nature of another data set: stability in alcohols. Format: physicochemical. Conditions: free acid; e.g. methanol, room temperature, four hours. On the procedure:
For example, 20-deoxynarasin acid (435.1 mg) was dissolved in methanol (40 ml) and allowed to stand at room temperature for four hours. The solution was then evaporated to dryness under vacuum; the residue was redissolved in dioxane and lyophilized to give 417.8 mg of 20-deoxy-epi-17-narasin acid.

Consider `CCC(C(=O)O)C1OC(C(C)C(O)C(C)C(=O)C(CC)C2OC3(C=CCC4(CCC(C)(C5CCC(O)(CC)C(C)O5)O4)O3)C(C)CC2C)C(C)CC1C` (stereo not shown) [20-deoxynarasin (Na salt), 20-deoxynarasin], for which, in the data set with Eimeria tenella, the “mortality (in words)” value is “prevented mortality”, the “number of lesions (in words)” value was “decreased the number of lesions” and the “weight gains (in words)” value was “improved weight gains”.

`CCC(C(=O)O)C1OC(C(C)C(O)C(C)C(=O)C(CC)C2OC3(C=CCC4(CCC(C)(C5CCC(O)(CC)C(C)O5)O4)O3)C(C)CC2C)C(C)CC1C` (stereo not shown) [20-deoxynarasin]: the solubility result in “solubility” (methanol, ethanol, dimethylformamide, dimethyl sulfoxide, ethyl acetate, chloroform, acetone and benzene) is listed as “soluble”; in the data set “solubility” (nonpolar organic solvents such as hexane), “only slightly soluble”; in “solubility” (water) it was “insoluble”. Moreover, in the data set “stability in alcohols”, the stability in alcohols entry is recorded as “unstable in alcohols, converting to 20-deoxy-epi-17-narasin free acid”.
